US20110009616A1, “AGENT FOR PREVENTING ARTERIOSCLEROSIS” (priority 2006, published 2011)

Columns and labels:
[1] = target: T1, hLOX-1 (Homo sapiens, UniProt P78380); experiment: Fluorescently labeled oxidized LDL uptake into CHO cells expressing hLOX-1, tetracycline induction (Example 6); type: cell-based; conditions: FIG. 5; control = 100%; compared with anti-hLOX antibody
T1 construct: expressed in transfected cells; host or cells: CHO-K1 Tet-On cell line (Clontech), pTRE-hLOX1 (B), doxycycline induction
Method: As for the same compounds as in Example 5, using Chinese hamster ovary (CHO) cells stably expressing bLOX-1, an ability to suppress fluorescently labeled oxidized LDL uptake into the CHO cells through the bLOX-1 was evaluated. Furthermore, as for the hLOX-1, in the CHO cells using an induction system of tetracycline gene expression, an ability to suppress fluorescently labeled oxidized LDL uptake through the hLOX-1 was evaluated.
As the CHO cells which express the hLOX-1 depending on tetracycline concentrations, the cells transfected with the plasmid described below in a known method were used. The transfected plasmid has a system where a hLOX-1 coding region integrated in pcDNA3.1-hLOX1-V5 (Journal of Molecular and Cellular Cardiology 39 (3) 553-561 (2005)) is mounted in a tetracycline response vector and the expression of hLOX-1 can be controlled depending on the concentration of tetracycline or doxycycline.
An assay using the CHO cells was carried out in the following manner. […] Then, the oxidized LDL labeled with 1,1′-dioctadecyl-3,3,3′,3′-tetramethylindocarbocyanine perchlorate (DiI, manufactured by Invitrogen), a carbocyanine fluorescence pigment, was applied to each well so as to be 5 μg/mL, and, under the environment described above, the uptake of the fluorescently labeled oxidized LDL was performed into the CHO cells for 4 hours. […]

[2] = target: bLOX-1 (Bos taurus, UniProt P79391); experiment: Plate assay: binding of oxidized LDL to recombinant bLOX-1 (Test Example 1); design: 6xHis (N); made in house; host or cells: E. coli; species or system bovine
Method: A LOX-1 antagonist activity of the agent for preventing arteriosclerosis obtained in the above-mentioned Example was evaluated on a LOX-1 binding inhibition rate to oxidized LDL using a recombinant LOX-1 protein obtained from E. coli.
As for the recombinant LOX-1, in cDNA of LOX-1 derived from bovine (bLOX-1) or derived from human (hLOX-1), a sequence to the C-terminal removing a transmembrane region was inserted into a pQE30 vector having a 6-histidine tag sequence (6×His) at the N-terminal (manufactured by Qiagen) so as to have a sequence aligned to a translation frame. The vector was transformed into E. coli able to be controlled by T5 promoter and the expression of each LOX-1 was induced under induction of 1 m M of isopropyl-1-thio-β-D-[…] (IPTG). After the induction of each expression at 37° C. for 3 hours, since the recombinant LOX-1 was obtained from an insoluble fraction, E. coli was lysed in a buffer containing 6 M guanidine hydrochloride and purified by affinity column chromatography using a Ni-NTA agarose column (manufactured by Qiagen) as the marker of 6×His (solvent: phosphoric acid buffer). Furthermore, each of the elution fractions containing LOX-1 was dialyzed in a 20 mM tris buffer (pH 9.0) and a 8M urea containing buffer, applied to a HiTrap Q column, an anion exchanger, (manufactured by Amersham), and eluted and purified with a linear concentration gradient of NaCl. Each of the fractions containing LOX-1 obtained above was reduced in a buffer containing excess amount of DTT (dithiothreitol), and then intramolecular S-S bonds were unwinded by a redox system using a mixture of oxidized […] low molecular thiol compounds. Each LOX-1 obtained above has a binding ability to the oxidized LDL and will be used as a LOX-1 standard for the following plate assays.
The plate assay was carried out using MaxiSorp Immuno Plate (96-well type, manufactured by NUNC). Each LOX-1 purified above was prepared with a PBS buffer so as to be 5 μg/mL, and 100 μL of the solution was applied to each well. After leaving at 4° C. overnight, each well was washed with 400 μL of a PBS buffer twice (400 μL×2) and 300 μL of a PBS buffer containing 25% BlockAce (manufactured by Dainippon Sumitomo Pharma Co., Ltd.) was applied to each well. After leaving at 4° C. overnight, each well was washed with 400 μL of a PBS buffer twice (400 μL×2), a solution of ethyl pheophorbide a was prepared with a PBS buffer containing 1% bovine serum albumin (BSA) so as to have an appropriate dilution rate, and 100 μL of the solution was applied to each well. After leaving at 4° C. overnight, each well was washed with 400 μL of a PBS buffer three times (400 μL×3), a solution of oxidized LDL was prepared with a PBS buffer so as to be 5 μg/mL, and 100 μL of the solution was applied to eachr well. After leaving at 4° C. overnight, each well was washed with 400 μL of a PBS buffer three times (400 μL×3), a horseradish peroxidase-conjugated anti-apolipoprotein B antibody (manufactured by The Binding Site) was diluted 1000 times with a PBS buffer, and 100 μL of the solution was applied to each well. After leaving at room temperature for 2 hours, each well was washed with 400 μL of a PBS buffer five times (400 μL×5), and 100 μL of a 3,3′,5,5′-tetramethylbenzidine (TMB) peroxidase-enzyme immunoassay (EIA)-substrate-kit reagent (manufactured by Bio-Rad) was applied to each well. After an appropriate reaction period, 50 μL of 2M H2SO4 was applied to each well to stop the reaction. Finally, a LOX-1 antagonist activity (an oxidized LDL binding inhibition rate to LOX-1) was determined by detection at 450 nm.

bLOX-1, sequence (P79391 57-270 limits assumed): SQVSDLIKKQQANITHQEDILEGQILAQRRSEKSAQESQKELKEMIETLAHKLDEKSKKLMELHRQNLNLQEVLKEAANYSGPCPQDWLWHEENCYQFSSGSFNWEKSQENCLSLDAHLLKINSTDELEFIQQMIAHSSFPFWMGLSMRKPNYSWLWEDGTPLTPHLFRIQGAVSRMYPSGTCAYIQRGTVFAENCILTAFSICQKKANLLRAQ

## C=Cc1c(C)c2cc3nc(c4c5[nH]c(cc6nc(cc1[nH]2)C(C)=C6CC)c(C)c5C(=O)[C@@H]4C(=O)OC)[C@@H](CCC(=O)O)[C@@H]3C [pheophorbide a]
[1]
  amount of oxidized LDL uptake into CHO cells expressing hLOX-1: stronger uptake inhibition on hLOX-1 than that of the anti-hLOX antibody
[2]; concentration dependence, FIG. 2
  IC50: ~100 nM
[2]; final concentration of 16 μM, FIG. 1
  inhibition activity on binding of oxidized LDL to bLOX-1 (ranking among actives): high inhibition activities
[2]; final concentration of 16 μM, FIG. 1, control without compounds = 100
  binding rate of oxidized LDL to bLOX-1 (inhibition of binding): inhibit the binding significantly
